These results are taken from US11485733B2, “Azaquinoline derivatives” (BAYER ANIMAL HEALTH GMBH, priority 2017, dated 2022).

One assay has as its target D. immitis Slo-1 (Dirofilaria immitis, UniProt I0DFK5). The experiment in a line: D. immitis Slo-1, action at a recombinant CHO cell line (membrane potential, FLIPR). It is filed as cell-based.
In assay [1] the test system is Nippostrongylus brasiliensis. The assay is described as follows: Nippostrongylus brasiliensis (NIPOBR) adult worms, acetylcholine esterase readout. The settings on record: read-out: activity (reduction of AChE compared to negative control); for inhibition at 1 µg/mL: at 1 μg/ml (1 ppm); for inhibition at 10 µg/mL: at 10 μg/ml (10 ppm). Summed up:
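Adult worms washed in saline with penicillin/streptomycin/amphotericin B, then incubated in medium with test compound (DMSO) at final 10 μg/ml (10 ppm) or 1 μg/ml (1 ppm). Acetylcholine esterase activity in a medium aliquot served as anthelmintic readout, compared with negative control.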

In a further assay the test system is Dirofilaria immitis. The experiment in a line: Dirofilaria immitis (DIROIM L4) larval motility. Particulars: 72 h, read-out: EC50 (reduction of motility).
The target in the next assay is C. elegans Slo-1a (Caenorhabditis elegans, UniProt Q95V25). Particulars: pE50 (negative decadic logarithm of EC50), CHO cells expressing C. elegans Slo-1a; voltage sensitive dye, 70 mM KCl.
C. elegans Slo-1a, sequence (Q95V25 whole entry): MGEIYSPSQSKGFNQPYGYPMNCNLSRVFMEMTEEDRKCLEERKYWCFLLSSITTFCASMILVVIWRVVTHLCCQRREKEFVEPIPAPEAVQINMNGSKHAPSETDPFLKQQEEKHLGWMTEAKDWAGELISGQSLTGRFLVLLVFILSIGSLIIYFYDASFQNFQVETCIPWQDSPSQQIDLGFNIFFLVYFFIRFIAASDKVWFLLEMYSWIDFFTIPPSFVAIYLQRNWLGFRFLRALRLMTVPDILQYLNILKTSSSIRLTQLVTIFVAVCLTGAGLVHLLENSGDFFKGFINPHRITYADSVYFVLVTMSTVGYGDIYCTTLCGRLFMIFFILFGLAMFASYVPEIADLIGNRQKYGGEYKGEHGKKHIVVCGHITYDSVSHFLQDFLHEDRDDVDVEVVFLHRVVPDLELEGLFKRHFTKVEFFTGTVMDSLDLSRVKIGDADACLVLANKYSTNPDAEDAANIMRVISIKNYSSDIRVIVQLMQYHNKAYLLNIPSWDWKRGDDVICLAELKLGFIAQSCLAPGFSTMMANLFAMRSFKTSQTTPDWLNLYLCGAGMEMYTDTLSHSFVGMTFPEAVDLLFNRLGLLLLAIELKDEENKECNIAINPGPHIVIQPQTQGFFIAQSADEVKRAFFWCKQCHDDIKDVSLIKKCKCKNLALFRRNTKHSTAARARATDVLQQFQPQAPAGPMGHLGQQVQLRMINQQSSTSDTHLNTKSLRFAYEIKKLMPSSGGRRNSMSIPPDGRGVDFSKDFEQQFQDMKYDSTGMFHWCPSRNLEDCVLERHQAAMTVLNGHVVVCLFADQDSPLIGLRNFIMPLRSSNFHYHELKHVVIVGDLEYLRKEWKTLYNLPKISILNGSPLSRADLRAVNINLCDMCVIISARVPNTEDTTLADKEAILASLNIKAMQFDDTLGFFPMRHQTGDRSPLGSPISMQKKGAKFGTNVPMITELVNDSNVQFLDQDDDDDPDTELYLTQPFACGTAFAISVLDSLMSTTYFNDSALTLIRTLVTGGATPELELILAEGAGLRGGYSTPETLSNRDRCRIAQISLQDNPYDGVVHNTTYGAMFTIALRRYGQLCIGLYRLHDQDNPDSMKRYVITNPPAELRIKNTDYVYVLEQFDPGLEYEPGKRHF
In assay [2] the test system is Dirofilaria immitis microfilariae. The assay is described as follows: Dirofilaria immitis microfilariae (DIROIM L1) motility. Particulars: 72 h, read-out: EC50 (reduction of motility).
The subject of assay [3] is Litomosoides sigmodontis third-stage larvae. The experiment in a line: Litomosoides sigmodontis (LTMOSI L3) larval motility. Particulars: 72 h, read-out: EC50 (reduction of motility).
Protocol: In Vitro Assay 6: Litomosoides sigmodontis (LTMOSI L3)
10 Litomosoides sigmodontis third-stage larvae, which were freshly isolated from the pleural cavity of an infected rodent, were added to wells of a microtitre plate containing a nutrient medium and the test compound in DMSO. Compounds were tested in concentration-response assay in duplicate. Larvae exposed to DMSO and no test compounds were used as negative controls. Larvae were evaluated after 72 h of incubation with the compound. Efficacy was determined as the reduction of motility in comparison to the negative control. Based on the evaluation of a wide concentration range, concentration-response curves as well as EC50-values were calculated.
A further assay concerns Cooperia curticei. The experiment in a line: Cooperia curticei larval mortality. Particulars: 120 h, read-out: activity (percentage of larval mortality).
The subject of another assay is Haemonchus contortus. The experiment in a line: Haemonchus contortus larval mortality. Particulars: 120 h, read-out: activity (percentage of larval mortality).

D. immitis Slo-1, sequence (I0DFK5 1-1119): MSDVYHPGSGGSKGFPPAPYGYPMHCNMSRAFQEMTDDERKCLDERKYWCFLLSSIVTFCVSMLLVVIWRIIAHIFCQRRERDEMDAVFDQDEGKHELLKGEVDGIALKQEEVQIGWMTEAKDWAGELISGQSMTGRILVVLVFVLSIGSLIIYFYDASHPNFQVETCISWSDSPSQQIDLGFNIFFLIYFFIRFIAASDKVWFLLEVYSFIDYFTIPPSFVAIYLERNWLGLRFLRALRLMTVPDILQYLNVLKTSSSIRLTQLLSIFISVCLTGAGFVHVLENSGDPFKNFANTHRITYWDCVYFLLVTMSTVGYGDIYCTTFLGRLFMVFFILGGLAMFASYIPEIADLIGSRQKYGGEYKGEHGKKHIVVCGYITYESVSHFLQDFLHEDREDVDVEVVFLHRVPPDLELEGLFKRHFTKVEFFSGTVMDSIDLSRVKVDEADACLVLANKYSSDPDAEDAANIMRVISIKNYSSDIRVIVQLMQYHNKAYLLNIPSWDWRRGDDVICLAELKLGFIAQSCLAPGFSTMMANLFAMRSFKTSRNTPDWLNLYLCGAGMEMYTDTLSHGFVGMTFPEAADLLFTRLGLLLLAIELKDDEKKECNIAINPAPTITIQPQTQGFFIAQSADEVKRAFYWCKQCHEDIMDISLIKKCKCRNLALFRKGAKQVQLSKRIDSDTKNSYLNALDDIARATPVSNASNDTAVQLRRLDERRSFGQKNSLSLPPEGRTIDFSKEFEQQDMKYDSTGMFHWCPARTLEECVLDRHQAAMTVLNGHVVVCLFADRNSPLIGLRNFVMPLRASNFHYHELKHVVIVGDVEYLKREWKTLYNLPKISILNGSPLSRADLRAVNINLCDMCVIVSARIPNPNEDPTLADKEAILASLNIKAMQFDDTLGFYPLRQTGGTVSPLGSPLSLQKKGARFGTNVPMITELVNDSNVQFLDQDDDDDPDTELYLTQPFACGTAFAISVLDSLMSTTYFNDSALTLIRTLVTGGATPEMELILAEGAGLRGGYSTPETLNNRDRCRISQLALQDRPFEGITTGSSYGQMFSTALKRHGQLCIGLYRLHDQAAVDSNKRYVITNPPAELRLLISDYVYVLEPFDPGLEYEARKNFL
Protocol for C. elegans Slo-1a: Generation of a Stable C. elegans CHO Cell Line
A CHO cell line was obtained from ATCC, code ATCC CRL-9096. […] The transfection solution included 300 μL OptiMEM (Life Technologies, Nr.: 31985), 2 μL (=6 μg) of plasmid DNA containing the C. elegans Slo 1a gene and 9 μL FugeneHD (Promega, Nr.: E2311), and was added to the cells prior to incubation for 48 hours at 37° C., 5% CO2. The transfection medium was exchanged for the selection medium which contains additional G418 (2 mg/ml, Invitrogen, Nr.: 10131) and the cells were seeded into 384 well plates (300 cells/well). After a few weeks, the remaining surviving cells were tested with a voltage sensitive dye (Membrane Potential Assay Kit, Molecular Devices Nr.: R8034) for K+ channel expression. Positive cell clones were purified by the limited dilution technique. For this the clone with the highest and most robust signal in the voltage sensitive dye assay was further subcloned (incubated) in 384 well plates (0.7 cells/well) in order to obtain clonal purity. This generated a final stable CHO cell line expressing the C. elegans Slo-1a.
Cells were cultured at 37° C. and 5% CO2 in MEMalpha with Gutamax I (Invitrogen, Nr.: 32571), supplemented with 10% (v/v) heat inactivated fetal bovine serum (Invitrogen, Nr.: 10500), G418 (1 mg/ml, Invitrogen, Nr.: 10131). Cells were detached using Accutase (Sigma, Nr.: A6964).
Membrane Potential Measurements
Laboratory compound testing was performed on 384-well microtiter plates (MTPs, Greiner, Nr.: 781092). 8000 cells/well were plated onto 384-well MTPs and cultured for 20 to 24 hours at 37° C. and 5% CO2. After removal of the cell culture medium, the cells were washed once with tyrode (150 mM NaCl, 0.3 mM KCl, 2 mM CaCl2, 1 mM MgCl2, 0.8 mM NaH2PO4, 5 mM Glucose, 28 mM Hepes, pH 7.4) and then loaded with the voltage sensitive dye of the Membrane Potential Assay Kit diluted in tyrode for 1 h at room temperature.
After starting the measurement of fluorescence using a FLIPR Tetra (Molecular Devices, Exc. 510-545 nm, Emm. 565-625 nm), test compounds were added followed by the addition of KCl tyrode (final assay concentration: 70 mM KCl, 2 mM CaCl2, 1 mM MgCl2, 0.8 mM NaH2PO4, 5 mM Glucose, 28 mM Hepes, pH 7.4, including the voltage sensitive dye). The measurement was completed after 7 minutes.
The data were evaluated by using the ActivityBase XLfit software (IDBS) for curve fitting and calculation of the half-maximal effective concentration (EC50) and are reported as negative decadic logarithm (pE50).
Protocol for Cooperia curticei: In Vitro Assay 6: Cooperia curticei
Solvent: Dimethyl Sulfoxide
Approximately 40 nematode larvae (Cooperia curticei) are transferred into a test tube containing the compound solution.
After 5 days percentage of larval mortality is recorded. 100% efficacy means all larvae are killed; 0% efficacy means no larvae are killed.
Protocol for Haemonchus contortus: In Vitro Assay 7: Haemonchus contortus
Solvent: Dimethyl Sulfoxide
Approximately 40 larvae of the red stomach worm (Haemonchus contortus) are transferred into a test tube containing compound solution.
After 5 days the percentage of larval mortality is recorded. 100% efficacy means all larvae are killed, 0% efficacy means no larvae are killed.

For orientation: EC50 means the midpoint of the concentration-response curve. On to `COc1ncc(-c2cccc(Cl)c2Cl)c2ncc(C(=O)N[C@H]3CCOc4ccccc43)c(N(C)C)c12` [Example T2-12, 8-(2,3-dichlorophenyl)-N-[(4S)-3,4-dihydro-2H-1-benzopyran-4-yl]-4-(dimethylamino)-5-methoxy-1,6-naphthyridine-3-carboxamide], for which the EC50 on D. immitis Slo-1 is 31.6 to 316 nM; with Dirofilaria immitis, under 0.1 µg/mL; on C. elegans Slo-1a it was under 3.16 nM; in assay [2], under 0.1 µg/mL; in assay [3], under 0.1 µg/mL. For the same compound, in assay [1], the inhibition at 1 µg/mL was over 80%. The inhibition at 10 µg/mL in assay [1] is over 80%.
Consider `CN(C)c1c(C(=O)N[C@H]2CCOc3ccccc32)cnc2c(-c3cc(F)cc(F)c3F)ncc(F)c12` [Example T1-12, N-[(4S)-3,4-dihydro-2H-1-benzopyran-4-yl]-4-(dimethylamino)-5-fluoro-8-(2,3,5-trifluorophenyl)-1,7-naphthyridine-3-carboxamide], for which the EC50 on D. immitis Slo-1 was 31.6 to 316 nM; with Dirofilaria immitis, under 0.1 µg/mL; in assay [2], under 0.1 µg/mL; in assay [3] it was under 0.1 µg/mL. Moreover, the inhibition at 1 µg/mL in assay [1] was over 80%. Besides, the inhibition at 10 µg/mL in assay [1] was over 80%.
As usually defined, the mortality is the percentage killed. With `COc1c(C(=O)N[C@H]2CCOc3ccccc32)nnc2c(-c3cc(Cl)cc(Cl)c3)cccc12` [Example T5-5, 8-(3,5-Dichlorophenyl)-N-[(4S)-3,4-dihydro-2H-chromen-4-yl]-4-methoxycinnoline-3-carboxamide], the EC50 was 31.6 to 316 nM at D. immitis Slo-1, under 0.1 µg/mL in the assay on Dirofilaria immitis, 3.16 to 31.6 nM at C. elegans Slo-1a and under 0.1 µg/mL in assay [2]. Besides, in assay [1], the inhibition at 1 µg/mL is over 80%. For the same compound, the mortality at 4 ppm in the assay on Cooperia curticei came to 80%. Besides, the mortality at 20 ppm with Cooperia curticei and with Haemonchus contortus was 80% throughout.
On to `O=C(N[C@H]1CCOc2ccccc21)c1cnc2c(-c3cc(Cl)cc(Cl)c3Cl)nccc2c1N1CCOCC1` [Example T1-6, N-[(4S)-3,4-dihydro-2H-chromen-4-yl]-4-(morpholin-4-yl)-8-(2,3,5-trichlorophenyl)-1,7-naphthyridine-3-carboxamide], for which the EC50 at D. immitis Slo-1 was 3.16 to 31.6 nM; with Dirofilaria immitis, under 0.1 µg/mL; on C. elegans Slo-1a, under 3.16 nM; in assay [2], under 0.1 µg/mL. The inhibition at 1 µg/mL in assay [1] is over 80%. Besides, the mortality at 4 ppm in the assay on Cooperia curticei was found to be 100%. Further, the mortality at 20 ppm in the assay with Cooperia curticei and in the assay with Haemonchus contortus was 100% in each case.
On to `CN(C)c1c(C(=O)N[C@H]2CCOc3ccccc32)cnc2c(-c3cc(Cl)cc(Cl)c3)cncc12` [Example T2-1, 8-(3,5-Dichlorophenyl)-N-[(4S)-3,4-dihydro-2H-chromen-4-yl]-4-(dimethylamino)-1,6-naphthyridine-3-carboxamide], for which the EC50 is 31.6 to 316 nM on D. immitis Slo-1, under 0.1 µg/mL in the assay on Dirofilaria immitis, 3.16 to 31.6 nM at C. elegans Slo-1a and under 0.1 µg/mL in assay [2]. Besides, the inhibition at 1 µg/mL in assay [1] is over 80%. The mortality at 4 ppm in the assay with Cooperia curticei was 100%. The mortality at 20 ppm in the assay on Cooperia curticei and in the assay on Haemonchus contortus was 100% throughout.
On to `COc1cnc2c(N(C)C)c(C(=O)N[C@H]3CCOc4ccccc43)cnc2c1-c1cc(F)cc(F)c1F` [Example T3-15, N-[(4S)-3,4-dihydro-2H-1-benzopyran-4-yl]-4-(dimethylamino)-7-methoxy-8-(2,3,5-trifluorophenyl)-1,5-naphthyridine-3-carboxamide], for which the EC50 at D. immitis Slo-1 was 3.16 to 31.6 nM; in the assay with Dirofilaria immitis, under 0.1 µg/mL; in assay [2] it was under 0.1 µg/mL; in assay [3] it was under 0.1 µg/mL. The inhibition at 1 µg/mL in assay [1] was over 80%. In assay [1], the inhibition at 10 µg/mL is over 80%.
For the compound `CN(C)c1c(C(=O)N[C@H]2CCOc3ccccc32)cnc2c(-c3cccc(Cl)c3Cl)nccc12` [Example T1-2, 8-(2,3-Dichlorophenyl)-N-[(4S)-3,4-dihydro-2H-chromen-4-yl]-4-(dimethylamino)-1,7-naphthyridine-3-carboxamide], the EC50 at D. immitis Slo-1 was 31.6 to 316 nM; in the assay with Dirofilaria immitis, under 0.1 µg/mL; at C. elegans Slo-1a it was 3.16 to 31.6 nM; in assay [2], under 0.1 µg/mL. Further, the inhibition at 1 µg/mL in assay [1] is over 80%. Besides, the inhibition at 10 µg/mL in assay [1] is over 80%. The mortality at 4 ppm in the assay on Cooperia curticei stood at 100%. In addition, the mortality at 20 ppm stood at 100% in the assay with Cooperia curticei and 90% in the assay with Haemonchus contortus.
Take `O=C(N[C@H]1CCOc2ccccc21)c1cnc2c(-c3cccc(Cl)c3Cl)ccnc2c1N1CCOCC1` [Example T3-4, 8-(2,3-Dichlorophenyl)-N-[(4S)-3,4-dihydro-2H-chromen-4-yl]-4-(morpholin-4-yl)-1,5-naphthyridine-3-carboxamide]: the EC50 at D. immitis Slo-1 was 3.16 to 31.6 nM; with Dirofilaria immitis, under 0.1 µg/mL; at C. elegans Slo-1a it was under 3.16 nM; in assay [2] it was under 0.1 µg/mL. The inhibition at 1 µg/mL in assay [1] is over 80%. Further, the mortality at 4 ppm in the assay with Cooperia curticei was 100%. Moreover, the mortality at 20 ppm with Cooperia curticei and with Haemonchus contortus was 100% in each case.
For the compound `O=C(N[C@H]1CCOc2ccccc21)c1cnc2c(-c3cc(Cl)cc(Cl)c3)nccc2c1N1CCOCC1` [Example T1-3, 8-(3,5-Dichlorophenyl)-N-[(4S)-3,4-dihydro-2H-chromen-4-yl]-4-(morpholin-4-yl)-1,7-naphthyridine-3-carboxamide], the EC50 at D. immitis Slo-1 is 31.6 to 316 nM; in the assay on Dirofilaria immitis, under 0.1 µg/mL; at C. elegans Slo-1a it was 3.16 to 31.6 nM; in assay [2], under 0.1 µg/mL. In assay [1], the inhibition at 1 µg/mL was over 80%. Further, the inhibition at 10 µg/mL in assay [1] was over 80%. In addition, the mortality at 4 ppm in the assay on Cooperia curticei is 100%. The mortality at 20 ppm in the assay on Cooperia curticei and in the assay with Haemonchus contortus was 100% throughout.
Consider `CN(C)c1c(C(=O)N[C@H]2CCOc3ccccc32)cnc2c(-c3cccc(Cl)c3Cl)c(F)cnc12` [Example T3-17, 8-(2,3-dichlorophenyl)-N-[(4S)-3,4-dihydro-2H-1-benzopyran-4-yl]-4-(dimethylamino)-7-fluoro-1,5-naphthyridine-3-carboxamide], for which the EC50 at D. immitis Slo-1 is 3.16 to 31.6 nM; with Dirofilaria immitis it was under 0.1 µg/mL; in assay [2], under 0.1 µg/mL; in assay [3] it was under 0.1 µg/mL. In addition, the inhibition at 1 µg/mL in assay [1] is over 80%. Also, the inhibition at 10 µg/mL in assay [1] was over 80%.
Regarding `O=C(N[C@H]1CCOc2ccccc21)c1cnc2c(-c3cccc(Cl)c3Cl)nccc2c1N1CCOCC1` [Example T1-4, 8-(2,3-Dichlorophenyl)-N-[(4S)-3,4-dihydro-2H-chromen-4-yl]-4-(morpholin-4-yl)-1,7-naphthyridine-3-carboxamide], the EC50 at D. immitis Slo-1 was 31.6 to 316 nM; in the assay with Dirofilaria immitis, under 0.1 µg/mL; on C. elegans Slo-1a, 3.16 to 31.6 nM; in assay [2], under 0.1 µg/mL; in assay [3], under 0.1 µg/mL. Also, in assay [1], the inhibition at 1 µg/mL was over 80%. Further, the inhibition at 10 µg/mL in assay [1] was over 80%. Further, the mortality at 4 ppm with Cooperia curticei came out at 100%.
Take `COc1ncc(-c2cc(Cl)cc(Cl)c2)c2ncc(C(=O)N[C@H]3CCOc4ccccc43)c(N(C)C)c12` [Example T2-5, 8-(3,5-dichlorophenyl)-N-[(4S)-3,4-dihydro-2H-1-benzopyran-4-yl]-4-(dimethylamino)-5-methoxy-1,6-naphthyridine-3-carboxamide]: the EC50 at D. immitis Slo-1 is 31.6 to 316 nM; with Dirofilaria immitis it was under 0.1 µg/mL; in assay [2] it was under 0.1 µg/mL; in assay [3], under 0.1 µg/mL. Also, in assay [1], the inhibition at 1 µg/mL is over 80%. The inhibition at 10 µg/mL in assay [1] is over 80%.
`O=C(N[C@H]1CCOc2ccccc21)c1cnc2c(-c3cc(F)cc(F)c3F)c(F)cnc2c1N1CCOCC1` [Example T3-20, N-[(4S)-3,4-dihydro-2H-1-benzopyran-4-yl]-7-fluoro-4-(morpholin-4-yl)-8-(2,3,5-trifluorophenyl)-1,5-naphthyridine-3-carboxamide]: the concentration for a half-maximal effect (EC50) is 3.16 to 31.6 nM at D. immitis Slo-1, under 0.1 µg/mL in the assay with Dirofilaria immitis, under 0.1 µg/mL in assay [2] and under 0.1 µg/mL in assay [3]. In assay [1], the inhibition at 1 µg/mL is over 80%. Besides, the inhibition at 10 µg/mL in assay [1] was over 80%.
On to `O=C(N[C@H]1CCOc2ccccc21)c1cnc2c(-c3cccc(Cl)c3Cl)cncc2c1N1CCOCC1` [Example T2-3, 8-(2,3-Dichlorophenyl)-N-[(4S)-3,4-dihydro-2H-chromen-4-yl]-4-(morpholin-4-yl)-1,6-naphthyridine-3-carboxamide], for which the EC50 is 3.16 to 31.6 nM on D. immitis Slo-1, under 0.1 µg/mL in the assay with Dirofilaria immitis, 3.16 to 31.6 nM at C. elegans Slo-1a and under 0.1 µg/mL in assay [2]. Also, in assay [1], the inhibition at 1 µg/mL was over 80%. In addition, in the assay on Cooperia curticei, the mortality at 4 ppm is 80%. Further, the mortality at 20 ppm in the assay with Cooperia curticei amounted to 100%; with Haemonchus contortus, 90%.
For the compound `CN(C)c1c(C(=O)N[C@H]2CCOc3ccccc32)cnc2c(-c3cccc(Cl)c3Cl)ncc(F)c12` [Example T1-10, 8-(2,3-dichlorophenyl)-N-[(4S)-3,4-dihydro-2H-1-benzopyran-4-yl]-4-(dimethylamino)-5-fluoro-1,7-naphthyridine-3-carboxamide], the EC50 is 31.6 to 316 nM on D. immitis Slo-1; under 0.1 µg/mL in the assay with Dirofilaria immitis; 3.16 to 31.6 nM on C. elegans Slo-1a; under 0.1 µg/mL in assay [2]; under 0.1 µg/mL in assay [3]. Moreover, in assay [1], the inhibition at 10 µg/mL is over 80%.
